# Test results from patent publication US20080108573A1, “Compositions And Methods For Treatment Of Cardiovascular Disease” (priority 2004, published 2008).
# “Also recorded” adds a separate entry of the source.
# What was measured:
# [1] = test system: SHR and WKY rats on low/high salt diet, L-NAME plus high salt diet, or streptozotocin induced diabetes; experiment: Preliminary four-week VIP infusion in rat models of myocardial fibrosis (Example 1); type: in vivo; settings: VIP 7.2 nmol/kg/day via Alzet mini pump, four weeks, vs vehicle
# Source text: Further preliminary experiments have been conducted on a number of animal models, which encompass a range of fibrous tissue replacement, varying from mild to moderate to severe. The experiments on the animal models encompassed a variety of aetiologies (alone and in combination) and a range of levels of induced fibrosis. For these experiments two types of rats were used, spontaneously hypertensive rats (SHR) and normotensive control Wistar-Kyoto rats (WKY). The WKY rats were given: 1) low salt diet, 2) high salt diet, or 3) L-NAME (ω-monomethyl-nitro-L-arginine; 10 mg/kg/day) plus high salt diet. The SHR rats were given low or high salt diets. The effect of VIP infusion in diabetic heart disease was also studied in the WKY rate with streptozotocin induced diabetes.
# In each treatment group, rats were randomised to VIP or vehicle infusion (n=24 in each group) for four weeks. VIP was administered via Alzet mini pump at a rate of 7.2 nmol/kg/day.
# After four weeks, the rats were anaesthetised and the hearts were harvested. Myocardial VIP concentrations and myocardial fibrosis were quantitated.
# [2] = test system: WKY rats on low, intermediate, high salt diet or high salt diet plus L-NAME; experiment: Acute VIP infusion: uptake of VIP by the myocardium (Examples 1 and 2); type: in vivo; settings: VIP 10 pmol/kg/min for one hour, rat models with increasing degree of fibrosis
# Method: In preliminary studies a series of acute infusion experiments have been conducted in animal models.
# Fourteen week old WKY rats were randomised to low salt diet (0.008%), intermediate salt diet (2.2%), high salt diet (4.4%) or high salt diet plus L-NAME (10 mg/kg/day) in the drinking water for 4 weeks (n=16 rats per group). On the day of the experiment the rats were anaesthetised and venous and arterial cannulae inserted. After a one hour rest equilibration period the rats were randomised to vehicle control (Haemaccell, Aventis) or VIP (10 pmol/kg/min) infusion for one hour at an infusion rate of 0.017 ml/min. The hearts were then harvested, myocardial VIP concentrations were measured and myocardial fibrosis quantitated.
# The difference between the mean myocardial VIP concentrations after VIP or control infusion is a measure of VIP uptake by the heart.
# (§1) VIP was measured by radioimmunoassay in known manner (see Davis R. E., Shelley S., Macdonald G. J. & Duggan K. A. (1992) The effects of a high sodium diet on the metabolism and secretion of vasoactive intestinal peptide in the rabbit. J. Physiol. 451:17-23. Duggan K. A., Ye V. Z. C., Jones D. M. Davis R. E. & Macdonald G. J. (1995) Effects of Endopeptidase 24.11 blockade on plasma and tissue concentrations of vasoactive intestinal peptide Clin. Sci. 89:267-271). […]
# [3] = test system: WKY rat fed a high salt diet; WKY rat fed a high salt diet and given L-NAME; experiment: Effect of VIP infusion on fibrosis in animal models of fibrosis (Example 3); type: in vivo; settings: VIP 5 pmol/kg/min, 4 weeks via Alzet minipump; WKY high salt diet and high salt diet plus L-NAME (FIGS. 2 and 3)
# Method: Three animal models of myocardial fibrosis were used (animals obtained from Australian Animal Resources, Perth, Western Australia, Australia) • i) WKY rat fed a high salt diet • ii) WKY rat fed a high salt diet and given L-NAME (ω-monomethyl-nitro-L-arginine, Sigma Chemical Co.) 10 mg/kg/day in the drinking water • iii) WKY rats with diabetes induced by streptozotocin injection 60 mg/kg
# In each model the rats were randomised to VIP (H-[…]NH2, obtained from Auspep, Australia) or vehicle control (Haemaccel, Aventis) infusion for 4 weeks via Alzet minipump (n=6-8 each experimental group). The dose of VIP was 5 pmol/kg/min.
# In models i) and ii) 14 week old WKY rats were commenced on high salt diet or high salt diet plus L-NAME. […] Myocardial VIP and myocardial fibrosis were quantitated. […]
# Myocardial VIP concentrations and myocardial fibrosis were quantitiated.
# as §1
# [4] = test system: WKY rats on high salt diet, high salt diet plus L-NAME, or with streptozotocin induced diabetes; experiment: Regression of existing myocardial fibrosis after VIP infusion (Example 4); type: in vivo, rat; settings: VIP 5 pmol/kg/min, 4 weeks, three models: high salt, streptozotocin diabetes (FIGS. 4 to 6)
# Method: (§2) VIP was measured by radioimmunoassay in known manner (see Davis R. E., Shelley S., Macdonald G. J. & Duggan K. A. (1992) The effects of a high sodium diet on the metabolism and secretion of vasoactive intestinal peptide in the rabbit. J. Physiol. 451:17-23. Duggan K. A., Ye V. Z. C., Jones D. M. Davis R. E. & Macdonald G. J. (1995) Effects of Endopeptidase 24.11 blockade on plasma and tissue concentrations of vasoactive intestinal peptide Clin. Sci. 89:267-271). The degree of myocardial fibrosis was quantitated by two methods in known manner (refer Ye V Z C, Hodge G, Yong J L C & Duggan K A (2002) Early myocardial fibrosis is associated with depletion of vasoactive intestinal peptide in the heart Exp. Physiol 87:539-546 Ye V Z C, Hodge G, Yong J L C & Duggan K A (2003) Myocardial VIP and myocardial fibrosis induced by nitric oxide synthase inhibition in the rat Acta Physiol. Scand. 179:353-360. Ye V Z C, Hodge G, Yong J L C & Duggan K A (2004) Vasopeptidase inhibition reverses myocardial VIP depletion and decreases myocardial fibrosis in salt sensitive hypertension Europ. J. Pharmacol. 485:235-242). […]
# [5] = test system: WKY rats on high salt diet or high salt diet plus L-NAME; experiment: Myocardial VIP content after four week VIP infusion (Example 4); type: in vivo, rat; settings: four week intravenous infusion of VIP vs vehicle; WKY high salt diet, or high salt diet and L-NAME (FIGS. 7A and 7B)
# Method: FIG. 7: A—Myocardial VIP concentrations in WKY rats on a high salt diet after a four week intravenous infusion of VIP or vehicle control. B—Myocardial VIP concentrations in WKY rats on a high salt diet and L-NAME (10 mg/kg) in the drinking water after a four week intravenous infusion of VIP or vehicle control.
# as §2, with “Europ.” for “Europ. J. Pharmacol. 485:235-242).”
# isolated rat heart = isolated rat heart perfused with VIP, ischaemia then reperfusion; cited from earlier work
# [6] = test system: isolated trabeculae of human hearts; settings: human hearts of previously healthy individuals; cited from earlier work
smiles,measurement,setting,value
CC[C@H](C)[C@H](NC(=O)[C@H](CO)NC(=O)[C@H](CC(N)=O)NC(=O)[C@H](CC(C)C)NC(=O)[C@H](Cc1ccc(O)cc1)NC(=O)[C@H](CCCCN)NC(=O)[C@H](CCCCN)NC(=O)[C@@H](NC(=O)[C@H](C)NC(=O)[C@H](CCSC)NC(=O)[C@H](CCC(N)=O)NC(=O)[C@H](CCCCN)NC(=O)[C@H](CCCNC(=N)N)NC(=O)[C@H](CC(C)C)NC(=O)[C@H](CCCNC(=N)N)NC(=O)[C@@H](NC(=O)[C@H](Cc1ccc(O)cc1)NC(=O)[C@H](CC(N)=O)NC(=O)[C@H](CC(=O)O)NC(=O)[C@@H](NC(=O)[C@H](Cc1ccccc1)NC(=O)[C@@H](NC(=O)[C@H](C)NC(=O)[C@H](CC(=O)O)NC(=O)[C@H](CO)NC(=O)[C@@H](N)Cc1c[nH]cn1)C(C)C)[C@@H](C)O)[C@@H](C)O)C(C)C)C(=O)N[C@@H](CC(C)C)C(=O)N[C@@H](CC(N)=O)C(N)=O [VIP],"myocardial fibrosis index, treated rats compared to the control groups",[1],significantly lower
same,uptake of VIP by the heart from the plasma (difference between mean myocardial VIP concentrations after VIP or control infusion),[2],"As fibrosis worsens the amount of VIP taken up by the heart increases; also recorded: more avid with increasing degrees of fibrosis; also recorded: the higher the level of fibrosis, the greater the uptake of VIP by the heart; also recorded: found to increase as the degree of fibrosis increased"
same,"myocardial fibrosis index, treated rats compared to the control groups",[3],significantly lower
same,regression of existing myocardial fibrosis,[4],regression of myocardial fibrosis in the three models
same,myocardial content of VIP / uptake of exogenous VIP,[5],clear association between the degree of fibrosis and uptake of exogenous VIP
same,"myocardial function (left ventricular functions, coronary flow, tissue injury)",isolated rat heart,significant improvement of myocardial function
same,ionotropic effect in atria and ventricles,[6],direct positive ionotropic effect
